Tested on: 186277-243-T-J2-PDC complex spheroid viability
Experiment: Anticancer human tumor 186277-243-T-J2-PDC patient-derived colon adenocarcinoma cell line growth inhibition [POLQ]
Settings: for IC50: curve of first compound; for viability, T/C: stronger effect = lower value
How it was run: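 Patient-derived tumour cells were co-cultured with HUVEC and mesenchymal stem cells as multicellular spheroids at 37 °C. They were treated with POLQ inhibitors (novobiocin, ART-558, RP6685) alone or combined with other agents. Top concentrations were at or near clinical Cmax (otherwise 10 microM; SN-38 at 1 microM), decreasing in half-log steps.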

[1] = second compound 0.0316 µM, first compound 0.00316 µM
[2] = second compound 0.0316 µM, first compound 0.01 µM
[3] = second compound 0.0316 µM, first compound 0.0316 µM
[4] = second compound 0.0316 µM, first compound 0.1 µM
[5] = second compound 0.0316 µM, first compound 0.316 µM
[6] = second compound 0.0316 µM, first compound 1 µM
[7] = second compound 0.1 µM, first compound 0.00316 µM
[8] = second compound 0.1 µM, first compound 0.01 µM
[9] = second compound 0.1 µM, first compound 0.0316 µM
[10] = second compound 0.1 µM, first compound 0.1 µM
[11] = second compound 0.1 µM, first compound 0.316 µM
[12] = second compound 0.1 µM, first compound 1 µM
[13] = second compound 0.316 µM, first compound 0.00316 µM
[14] = second compound 0.316 µM, first compound 0.01 µM
[15] = second compound 0.316 µM, first compound 0.0316 µM
[16] = second compound 0.316 µM, first compound 0.1 µM
[17] = second compound 0.316 µM, first compound 0.316 µM
[18] = second compound 0.316 µM, first compound 1 µM
[19] = second compound 1 µM, first compound 0.00316 µM
[20] = second compound 1 µM, first compound 0.01 µM
[21] = second compound 1 µM, first compound 0.0316 µM
[22] = second compound 1 µM, first compound 0.1 µM
[23] = second compound 1 µM, first compound 0.316 µM
[24] = second compound 1 µM, first compound 1 µM
[25] = second compound 3.16 µM, first compound 0.00316 µM
[26] = second compound 3.16 µM, first compound 0.01 µM
[27] = second compound 3.16 µM, first compound 0.0316 µM
[28] = second compound 3.16 µM, first compound 0.1 µM
[29] = second compound 3.16 µM, first compound 0.316 µM
[30] = second compound 3.16 µM, first compound 1 µM
[31] = second compound 10 µM, first compound 0.00316 µM
[32] = second compound 10 µM, first compound 0.01 µM
[33] = second compound 10 µM, first compound 0.0316 µM
[34] = second compound 10 µM, first compound 0.1 µM
[35] = second compound 10 µM, first compound 0.316 µM
[36] = second compound 10 µM, first compound 1 µM
[37] = second compound 0.0316 µM, first compound 3.16 µM
[38] = second compound 0.0316 µM, first compound 10 µM
[39] = second compound 0.1 µM, first compound 3.16 µM
[40] = second compound 0.1 µM, first compound 10 µM
[41] = second compound 0.316 µM, first compound 3.16 µM
[42] = second compound 0.316 µM, first compound 10 µM
[43] = second compound 1 µM, first compound 3.16 µM
[44] = second compound 1 µM, first compound 10 µM
[45] = second compound 3.16 µM, first compound 3.16 µM
[46] = second compound 3.16 µM, first compound 10 µM
[47] = second compound 10 µM, first compound 3.16 µM
[48] = second compound 10 µM, first compound 10 µM
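Note: spheroids exposed to compounds for seven days.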
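Throughout, for viability, T/C: 100% = DMSO vehicle control viability.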

C=CCn1c(=O)c2cnc(Nc3ccc(N4CCN(C)CC4)cc3)nc2n1-c1cccc(C(C)(C)O)n1 + Nc1ccc(C#CCN(C(=O)Cc2ncc(C(F)(F)F)cc2C(F)(F)F)c2ccc(F)cc2)nn1
IC50 (second compound 0.0316 µM): 212 nM
IC50 (second compound 0.1 µM): 224 nM
IC50 (second compound 0.316 µM): 229 nM
IC50 (second compound 1 µM): 214 nM
IC50 (second compound 3.16 µM): 211 nM
IC50 (second compound 10 µM): 204 nM
viability, T/C [1]: 95%
viability, T/C [2]: 91.2%
viability, T/C [3]: 86.9%
viability, T/C [4]: 87.5%
viability, T/C [5]: 30.1%
viability, T/C [6]: 15.7%
viability, T/C [7]: 94.8%
viability, T/C [8]: 107%
viability, T/C [9]: 109%
viability, T/C [10]: 99.5%
viability, T/C [11]: 28.8%
viability, T/C [12]: 15.1%
viability, T/C [13]: 88.5%
viability, T/C [14]: 105%
viability, T/C [15]: 93%
viability, T/C [16]: 101%
viability, T/C [17]: 31.8%
viability, T/C [18]: 14.4%
viability, T/C [19]: 89.5%
viability, T/C [20]: 101%
viability, T/C [21]: 101%
viability, T/C [22]: 93%
viability, T/C [23]: 28%
viability, T/C [24]: 12%
viability, T/C [25]: 109%
viability, T/C [26]: 97.5%
viability, T/C [27]: 110%
viability, T/C [28]: 98.2%
viability, T/C [29]: 23.7%
viability, T/C [30]: 13.3%
viability, T/C [31]: 90.9%
viability, T/C [32]: 98.1%
viability, T/C [33]: 100%
viability, T/C [34]: 96.5%
viability, T/C [35]: 21.3%
viability, T/C [36]: 11.2%

CC1COCCN1c1cc(-c2ccnn2C)c2ccnc(-c3ccn[nH]3)c2n1 (stereo not drawn) + Nc1ccc(C#CCN(C(=O)Cc2ncc(C(F)(F)F)cc2C(F)(F)F)c2ccc(F)cc2)nn1
IC50 (second compound 0.0316 µM): 74 nM
IC50 (second compound 0.1 µM): 75.2 nM
IC50 (second compound 0.316 µM): 76.3 nM
IC50 (second compound 1 µM): 76.4 nM
IC50 (second compound 3.16 µM): 75.8 nM
IC50 (second compound 10 µM): 71.9 nM
viability, T/C [3]: 113%
viability, T/C [4]: 27.5%
viability, T/C [5]: 10.3%
viability, T/C [6]: 7.67%
viability, T/C [37]: 6.65%
viability, T/C [38]: 7.86%
viability, T/C [9]: 115%
viability, T/C [10]: 28.8%
viability, T/C [11]: 11%
viability, T/C [12]: 7.38%
viability, T/C [39]: 6.86%
viability, T/C [40]: 9.94%
viability, T/C [15]: 126%
viability, T/C [16]: 26.8%
viability, T/C [17]: 9.95%
viability, T/C [18]: 7.12%
viability, T/C [41]: 6.81%
viability, T/C [42]: 9.08%
viability, T/C [21]: 124%
viability, T/C [22]: 27.5%
viability, T/C [23]: 9.34%
viability, T/C [24]: 7.54%
viability, T/C [43]: 6.88%
viability, T/C [44]: 9.31%
viability, T/C [27]: 123%
viability, T/C [28]: 26.7%
viability, T/C [29]: 9.31%
viability, T/C [30]: 6.61%
viability, T/C [45]: 8.2%
viability, T/C [46]: 7.84%
viability, T/C [33]: 118%
viability, T/C [34]: 22.5%
viability, T/C [35]: 9.8%
viability, T/C [36]: 7.22%
viability, T/C [47]: 6.51%
viability, T/C [48]: 7.63%

CCc1c2c(nc3ccc(O)cc13)-c1cc3c(c(=O)n1C2)COC(=O)[C@]3(O)CC + Cc1cccc(N(C)C(=O)C2C(O)CCN2c2nc(C)cc(C(F)(F)F)c2C#N)c1
IC50 (second compound 0.0316 µM): 9.32 nM
IC50 (second compound 0.1 µM): 10.2 nM
IC50 (second compound 0.316 µM): 10.8 nM
IC50 (second compound 1 µM): 10.1 nM
IC50 (second compound 3.16 µM): 9.58 nM
IC50 (second compound 10 µM): 5.53 nM
viability, T/C [1]: 69%
viability, T/C [2]: 48.5%
viability, T/C [3]: 27%
viability, T/C [4]: 12.7%
viability, T/C [5]: 10.5%
viability, T/C [6]: 7.92%
viability, T/C [7]: 74%
viability, T/C [8]: 50.3%
viability, T/C [9]: 25.7%
viability, T/C [10]: 12.8%
viability, T/C [11]: 9.86%
viability, T/C [12]: 7.71%
viability, T/C [13]: 66.5%
viability, T/C [14]: 51.6%
viability, T/C [15]: 27.9%
viability, T/C [16]: 13.8%
viability, T/C [17]: 9.55%
viability, T/C [18]: 8.34%
viability, T/C [19]: 73%
viability, T/C [20]: 50.3%
viability, T/C [21]: 24%
viability, T/C [22]: 12.7%
viability, T/C [23]: 10.4%
viability, T/C [24]: 7.86%
viability, T/C [25]: 59.1%
viability, T/C [26]: 50.1%
viability, T/C [27]: 24.3%
viability, T/C [28]: 12.1%
viability, T/C [29]: 9.42%
viability, T/C [30]: 6.8%
viability, T/C [31]: 58.6%
viability, T/C [32]: 40.8%
viability, T/C [33]: 21%
viability, T/C [34]: 9.71%
viability, T/C [35]: 8.72%
viability, T/C [36]: 6.68%

CCCS(=O)(=O)Nc1ccc(F)c(C(=O)c2c[nH]c3ncc(-c4ccc(Cl)cc4)cc23)c1F + Cc1cccc(N(C)C(=O)C2C(O)CCN2c2nc(C)cc(C(F)(F)F)c2C#N)c1
IC50 (second compound 0.0316 µM): > 10000 nM
IC50 (second compound 0.1 µM): > 10000 nM
IC50 (second compound 0.316 µM): > 10000 nM
IC50 (second compound 1 µM): > 10000 nM
IC50 (second compound 3.16 µM): > 10000 nM
IC50 (second compound 10 µM): > 10000 nM
viability, T/C [3]: 83%
viability, T/C [4]: 101%
viability, T/C [5]: 80.6%
viability, T/C [6]: 95.6%
viability, T/C [37]: 82.8%
viability, T/C [38]: 58%
viability, T/C [9]: 87.7%
viability, T/C [10]: 91.2%
viability, T/C [11]: 79.3%
viability, T/C [12]: 92.4%
viability, T/C [39]: 76.8%
viability, T/C [40]: 56.8%
viability, T/C [15]: 85.9%
viability, T/C [16]: 108%
viability, T/C [17]: 87%
viability, T/C [18]: 88.2%
viability, T/C [41]: 77.8%
viability, T/C [42]: 52.8%
viability, T/C [21]: 106%
viability, T/C [22]: 89.3%
viability, T/C [23]: 99.9%
viability, T/C [24]: 79.7%
viability, T/C [43]: 89.7%
viability, T/C [44]: 51%
viability, T/C [27]: 115%
viability, T/C [28]: 88%
viability, T/C [29]: 83.5%
viability, T/C [30]: 83.4%
viability, T/C [45]: 77.3%
viability, T/C [46]: 56.9%
viability, T/C [33]: 93.4%
viability, T/C [34]: 86.9%
viability, T/C [35]: 93.2%
viability, T/C [36]: 83.9%
viability, T/C [47]: 88.1%
viability, T/C [48]: 56.1%
